Values joined by “and” are separate entries in the source; they are usually repeats but may differ in a detail not shown here. Identical values can stand only once. Like-named read-outs stand apart in the source and are kept apart here.
Assays:
[1] = In vivo pharmacokinetics in male C57BL/6 mice; set-up: species or system mouse
Experimental: Animals: Male C57BL/6 mice (25-30 g) from Charles River Labs were acclimatized for a minimum of 5 days prior to dosing. Body weights were recorded on the day of dosing.
Food restriction: Animals dosed p.o. were deprived of food overnight and fed ˜2 h following dosing.
Dosing: Formulations were administered intravenously (i.v.) via the tail vein or orally (p.o.) by gavage with disposable feeding needles.
Sample collection: Serial blood samples was collected via tail snip. Terminal blood samples was collected under isoflurane anesthesia by cardiac puncture.
Sample processing/storage: All blood samples were transferred into K2EDTA tubes on wet ice and centrifuged within 5 min (3200× g for 5 min at 4° C.) to obtain plasma. Plasma was stored at −80° C. until analysis.
Instrumentation: AB Sciex QTRAP 4000 or 6500 MS/MS system equipped with an LC system with a binary pump, a solvent degasser, a thermostatted column compartment and a multiplate autosampler.
5. PK Analysis • i. Analysis software: Phoenix® WinNonlin® 8.2 (Pharsight, Certara, Mountainview, CA) • ii. Analysis methods: non-compartmental analysis, linear up/log down trapezoidal rule • iii. PK parameters: C0, t1/2, AUC0-tlast. AUC0-∞, CL, Vss, MRT, tmax(po), Cmax(po), F, as appropriate

[2] = molecular target: human 5-HT2A (Homo sapiens, UniProt P28223); test: Radioligand binding assay on human 5-HT2A receptor ([3H]-ketanserin)
Sequence of human 5-HT2A (P28223 whole entry): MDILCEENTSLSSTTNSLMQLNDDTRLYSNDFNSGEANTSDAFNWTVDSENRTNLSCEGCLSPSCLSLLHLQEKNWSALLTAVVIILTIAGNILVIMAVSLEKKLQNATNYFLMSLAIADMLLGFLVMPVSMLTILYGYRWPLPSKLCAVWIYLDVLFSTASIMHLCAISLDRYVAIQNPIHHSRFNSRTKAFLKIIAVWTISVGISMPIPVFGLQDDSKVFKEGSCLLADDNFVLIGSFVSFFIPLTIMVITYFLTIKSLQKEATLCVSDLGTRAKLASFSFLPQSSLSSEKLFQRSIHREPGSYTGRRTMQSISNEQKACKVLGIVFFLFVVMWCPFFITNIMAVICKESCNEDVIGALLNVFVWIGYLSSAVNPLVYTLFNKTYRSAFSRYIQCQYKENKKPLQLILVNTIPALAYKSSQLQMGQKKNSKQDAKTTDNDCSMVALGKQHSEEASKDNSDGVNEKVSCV
Experimental: i. The assay buffer was prepared following the table below;
iii. Prepared (v/v) DMSO as follows: a. […] The plates were sealed and incubated at 4° C. for 3 hrs;
iv. Preparation of assay plates: a.
vi. The plates were sealed and incubated at 27° C. for 90 min.

[3] = Liver microsomes stability with NADPH, mouse
Experimental: The objective of this study was to estimate in vitro metabolic stability of representative compounds of the application in pooled human and male mouse liver microsomes. The concentrations of parent compounds in reaction systems were evaluated by LC-MS/MS for estimating the stability in pooled human and male mouse liver microsomes. The in vitro intrinsic clearances of test compounds were determined as well.
A master solution in the “Incubation Plate” containing phosphate buffer, ultra-pure H2O, MgCl2 solution and liver microsomes was made according to Table 3. The mixture was pre-warmed at 37° C. water bath for 5 minutes.
40 μL of 10 mM NADPH solution was added to each well. The final concentration of NADPH was 1 mM. The negative control samples were prepared by replacing NADPH with 40 μL of ultra-pure H2O. Samples were prepared in duplicate. Negative controls were prepared in singlet.
The reaction was started with the addition of 4 μL of 200 μM test compounds or control compounds to each master solution to get the final concentration of 2 μM. This study was performed in duplicate.
Aliquots of 50 μL were taken from the reaction solution at 0, 15, 30, 45 and 60 minutes. The reaction solutions were stopped by the addition of 4 volumes of cold methanol with IS (100 nM alprazolam, 200 nM imipramine, 200 nM labetalol and 2 μM ketoprofen). Samples were centrifuged at 3,220 g for 40 minutes. Aliquot of 90 μL of the supernatant was mixed with 90 μL of ultra-pure H2O and then was used for LC-MS/MS analysis.
LC/MS analysis was performed for all samples from this study using a Shimadzu liquid chromatograph separation system equipped with degasser DGU-20A5R; solvent delivery unit LC-30AD; system controller SIL-30AC; column oven CTO-30A; CTC Analytics HTC PAL System; Mass spectrometric analysis was performed using an Triple Quad™ 5500 instrument.
All calculations were carried out using Microsoft Excel. Peak area ratios of test compound to internal standard (listed in the below table) were determined from extracted ion chromatograms.
All calculations were carried out using Microsoft Excel. Peak areas were determined from extracted ion chromatograms. The slope value, k, was determined by linear regression of the natural logarithm of the remaining percentage of the parent drug vs. incubation time curve.
The in vitro half-life (in vitro t1/2) was determined from the slope value:
Conversion of the in vitro t1/2 (min) into the in vitro intrinsic clearance (in vitro CLint, in μL/min/mg proteins) was done using the following equation (mean of duplicate determinations): […]

[4] = 9.92 mg/kg i.v., individual animals M10-M12
[5] = 9.92 mg/kg p.o., individual animals M13-M15
[6] = 9.92 mg/kg s.c., individual animals M16-M18

With `[2H]C([2H])(c1c[nH]c2ccccc12)[C@H]1CCCN1C([2H])([2H])[2H]` [I-B-1, (R)-3-((1-(methyl-d3)pyrrolidin-2-yl)methyl-d2)-1H-indole] the AUC0-tlast [1, 4] was 3708 ng·h/mL and 4440 ng·h/mL, the AUC(0-inf) [1, 4] was 3709 ng·h/mL and 4441 ng·h/mL and the “Apparent t1/2” value [1, 4] was 2.16 h and 2.05 h. The C0 [1, 4] was 3473 ng/mL and 3356 ng/mL, the CL [1, 4] was 2675 mL/h/kg and 2234 mL/h/kg and the MRT0-inf [1, 4] was 2.46 h and 2.57 h. The Vss [1, 4] was 6590 mL/kg and 5751 mL/kg, the F ([1]; 9.92 mg/kg p.o., Mean ± SD) was 58.2 ± 18.4% and the AUC0-tlast [1, 5] was 2782 ng·h/mL and 2260 ng·h/mL. For the same compound, the AUC(0-inf) [1, 5] was 3099 ng·h/mL, the Cmax [1, 5] was 516 ng/mL and 342 ng/mL and the MRT0-inf [1, 5] was 8.54 h. For the same compound, the tmax [1, 5] was 60 min and 30 min, the F ([1]; 9.92 mg/kg p.o., individual animals M13-M15, for M15 AUC0-tlast used) was 40.8% and 77.5% and 56.5% and the “Apparent t1/2” value ([1]; 9.92 mg/kg p.o., individual animals, estimate may not be accurate) was 9.46 h. For the same compound, the F ([1]; 9.92 mg/kg s.c., Mean ± SD) was 67.9 ± 6.24%, the AUC0-tlast [1, 6] was 2833 ng·h/mL and 2429 ng·h/mL and the AUC(0-inf) [1, 6] was 2834 ng·h/mL and 2431 ng·h/mL. For the same compound, the “Apparent t1/2” value [1, 6] was 2.24 h and 2.56 h, the Cmax [1, 6] was 1090 ng/mL and 950 ng/mL and the F [1, 6] was 72.2% and 70.9% and 60.8%. For the same compound, the MRT0-inf [1, 6] was 2.58 h, the tmax [1, 6] was 30 min and the clearance ([1]; male, C57BL/6, mouse, plasma, iv, 9.92 mg/kg, 9.92 mg/kg i.v., Mean ± SD) was 41.7 mL/min/kg. The AUC(0-inf) ([1]; male, C57BL/6, mouse, plasma, iv, 9.92 mg/kg, 9.92 mg/kg i.v., Mean ± SD, read-out: AUC0-inf) was 4000 ± 389 ng·h/mL, the AUC(0-t) ([1]; male, C57BL/6, mouse, plasma, iv, 9.92 mg/kg, 9.92 mg/kg i.v., Mean ± SD, read-out: AUC0-tlast) was 4000 ± 389 ng·h/mL and the half-life ([1]; male, C57BL/6, mouse, plasma, iv, 9.92 mg/kg, 9.92 mg/kg i.v., Mean ± SD, read-out: Apparent t1/2 (converted)) was 130 ± 7.62 min. It also gave a C0 ([1]; male, C57BL/6, mouse, plasma, iv, 9.92 mg/kg, 9.92 mg/kg i.v., Mean ± SD, read-out: C0) of 3910 ± 868 ng/mL, an MRT inf ([1]; male, C57BL/6, mouse, plasma, iv, 9.92 mg/kg, 9.92 mg/kg i.v., Mean ± SD, read-out: MRT0-inf) of 2.43 ± 0.16 h and a Vd ([1]; male, C57BL/6, mouse, plasma, iv, 9.92 mg/kg, 9.92 mg/kg i.v., Mean ± SD, read-out: Vss) of 6.06 ± 0.464 L/kg. For the same compound, the clearance ([1]; male, C57BL/6, mouse, plasma, iv, 9.92 mg/kg, 9.92 mg/kg i.v., individual animals M10-M12) was 43 mL/min/kg, the AUC(0-inf) ([1]; male, C57BL/6, mouse, plasma, iv, 9.92 mg/kg, 9.92 mg/kg i.v., individual animals M10-M12, read-out: AUC0-inf) was 3850 ng·h/mL and the AUC(0-t) ([1]; male, C57BL/6, mouse, plasma, iv, 9.92 mg/kg, 9.92 mg/kg i.v., individual animals M10-M12, read-out: AUC0-tlast) was 3850 ng·h/mL. The half-life ([1]; male, C57BL/6, mouse, plasma, iv, 9.92 mg/kg, 9.92 mg/kg i.v., individual animals M10-M12, read-out: Apparent t1/2 (converted)) was 138 min, the C0 ([1]; male, C57BL/6, mouse, plasma, iv, 9.92 mg/kg, 9.92 mg/kg i.v., individual animals M10-M12, read-out: C0) was 4910 ng/mL and the MRT inf ([1]; male, C57BL/6, mouse, plasma, iv, 9.92 mg/kg, 9.92 mg/kg i.v., individual animals M10-M12, read-out: MRT0-inf) was 2.26 h. The Vd ([1]; male, C57BL/6, mouse, plasma, iv, 9.92 mg/kg, 9.92 mg/kg i.v., individual animals M10-M12, read-out: Vss) was 5.83 L/kg, the AUC(0-t) ([1]; male, C57BL/6, mouse, plasma, po, 9.92 mg/kg, 9.92 mg/kg p.o., Mean ± SD, read-out: AUC0-tlast) was 2170 ± 665 ng·h/mL and the Cmax ([1]; male, C57BL/6, mouse, plasma, po, 9.92 mg/kg, 9.92 mg/kg p.o., Mean ± SD, read-out: Cmax) was 389 ± 112 ng/mL. The tmax ([1]; male, C57BL/6, mouse, plasma, po, 9.92 mg/kg, 9.92 mg/kg p.o., Mean ± SD, read-out: tmax) was 15 min, the AUC(0-inf) ([1]; male, C57BL/6, mouse, plasma, po, 9.92 mg/kg, 9.92 mg/kg p.o., individual animals M13-M15, read-out: AUC0-inf) was 1630 ng·h/mL and the AUC(0-t) ([1]; male, C57BL/6, mouse, plasma, po, 9.92 mg/kg, 9.92 mg/kg p.o., individual animals M13-M15, read-out: AUC0-tlast) was 1460 ng·h/mL. The Cmax ([1]; male, C57BL/6, mouse, plasma, po, 9.92 mg/kg, 9.92 mg/kg p.o., individual animals M13-M15, read-out: Cmax) was 308 ng/mL, the MRT inf ([1]; male, C57BL/6, mouse, plasma, po, 9.92 mg/kg, 9.92 mg/kg p.o., individual animals M13-M15, read-out: MRT0-inf) was 8.91 h and the half-life ([1]; male, C57BL/6, mouse, plasma, po, 9.92 mg/kg, 9.92 mg/kg p.o., individual animals, estimate may not be accurate, read-out: Apparent t1/2 (converted)) was 580 min. The AUC(0-inf) ([1]; male, C57BL/6, mouse, plasma, po, 9.92 mg/kg, 9.92 mg/kg p.o., mean (n = 2), read-out: AUC0-inf) was 2360 ng·h/mL, the half-life ([1]; male, C57BL/6, mouse, plasma, po, 9.92 mg/kg, 9.92 mg/kg p.o., mean (n = 2), read-out: Apparent t1/2 (converted)) was 574 min and the MRT inf ([1]; male, C57BL/6, mouse, plasma, po, 9.92 mg/kg, 9.92 mg/kg p.o., mean (n = 2), read-out: MRT0-inf) was 8.72 h. For the same compound, the AUC(0-inf) ([1]; male, C57BL/6, mouse, plasma, sc, 9.92 mg/kg, 9.92 mg/kg s.c., Mean ± SD, read-out: AUC0-inf) was 2720 ± 249 ng·h/mL, the AUC(0-t) ([1]; male, C57BL/6, mouse, plasma, sc, 9.92 mg/kg, 9.92 mg/kg s.c., Mean ± SD, read-out: AUC0-tlast) was 2720 ± 250 ng·h/mL and the half-life ([1]; male, C57BL/6, mouse, plasma, sc, 9.92 mg/kg, 9.92 mg/kg s.c., Mean ± SD, read-out: Apparent t1/2 (converted)) was 138 ± 13.9 min. It also gave a Cmax ([1]; male, C57BL/6, mouse, plasma, sc, 9.92 mg/kg, 9.92 mg/kg s.c., Mean ± SD, read-out: Cmax) of 1240 ± 387 ng/mL, an MRT inf ([1]; male, C57BL/6, mouse, plasma, sc, 9.92 mg/kg, 9.92 mg/kg s.c., Mean ± SD, read-out: MRT0-inf) of 2.6 ± 0.186 h and a tmax ([1]; male, C57BL/6, mouse, plasma, sc, 9.92 mg/kg, 9.92 mg/kg s.c., Mean ± SD, read-out: tmax) of 15 min. The AUC(0-inf) ([1]; male, C57BL/6, mouse, plasma, sc, 9.92 mg/kg, 9.92 mg/kg s.c., individual animals M16-M18, read-out: AUC0-inf) was 2890 ng·h/mL, the AUC(0-t) ([1]; male, C57BL/6, mouse, plasma, sc, 9.92 mg/kg, 9.92 mg/kg s.c., individual animals M16-M18, read-out: AUC0-tlast) was 2880 ng·h/mL and the half-life ([1]; male, C57BL/6, mouse, plasma, sc, 9.92 mg/kg, 9.92 mg/kg s.c., individual animals M16-M18, read-out: Apparent t1/2 (converted)) was 126 min. For the same compound, the Cmax ([1]; male, C57BL/6, mouse, plasma, sc, 9.92 mg/kg, 9.92 mg/kg s.c., individual animals M16-M18, read-out: Cmax) was 1680 ng/mL, the MRT inf ([1]; male, C57BL/6, mouse, plasma, sc, 9.92 mg/kg, 9.92 mg/kg s.c., individual animals M16-M18, read-out: MRT0-inf) was 2.8 h and the tmax ([1]; male, C57BL/6, mouse, plasma, sc, 9.92 mg/kg, 9.92 mg/kg s.c., individual animals M16-M18, read-out: tmax) was 15 min. The IC50 [2] was < 500 nM, the half-life at 2 μM ([3]; male, mouse, microsomes) was 69.6 min and the microsomal CLint at 2 μM ([3]; male, mouse, microsomes) was 19.9 µL/min/mg. For the same compound, the “Remaining Percentage (%) after 60 min Mouse” value ([3]; mouse liver microsomes, with NADPH, 2 μM) was 55.00%.

Reference: US20240166630A1, “INDOLE DERIVATIVES AS SEROTONERGIC AGENTS USEFUL FOR THE TREATMENT OF DISORDERS RELATED THERETO” (Mindset Pharma Inc., priority 2021, published 2024)
